Data from publication PMC7926793, “Synthesis and Biological Evaluation of 1-(Diarylmethyl)-1H-1,2,4-triazoles and 1-(Diarylmethyl)-1H-imidazoles as a Novel Class of Anti-Mitotic Agent for Activity in Breast Cancer” (Pharmaceuticals, 2021).
Several values for one entry are separate records, joined by “and”; a condition that tells them apart may be missing. Identical values can stand only once. Like-named read-outs stand apart in the source and are kept apart here.

Experiments:
[1] = toxicity evaluation, alamarBlue assay; format: cell-based, human; conditions: human, MCF-10A cells; for viability at 24 h, 1 µM: read-out: cell viability; for viability at 48 h, 1 µM / viability at 72 h, 1 µM / viability at 48 h, 10 µM: read-out: percentage of viable cells
NCI 60 cell line panel = test: NCI 60 cell line screen, panel means; format: cell-based, human; conditions: for Mean Growth percentage: 60 cell line panel, single dose 10 µM; for GI50 / LC50 (50% lethal concentration): Homo sapiens
CCRF-CEM = test: NCI 60 cell line screen (Leukemia); format: cell-based, human; conditions: for GI50: Homo sapiens, NCI 5 dose assay; for Growth percentage: single dose 10 µM
HL-60 (TB) = test: NCI 60 cell line screen (Leukemia); format: cell-based, human; conditions: for GI50: Homo sapiens, NCI 5 dose assay; for Growth percentage: single dose 10 µM
K-562 = test: NCI 60 cell line screen (Leukemia); format: cell-based, human; conditions: for GI50: Homo sapiens, K562, K-562, NCI 5 dose assay; for Growth percentage: K-562, single dose 10 µM
MOLT-4 = test: NCI 60 cell line screen (Leukemia); format: cell-based, human; conditions: for GI50: Homo sapiens, MOLT-4, NCI 5 dose assay; for Growth percentage: MOLT-4, single dose 10 µM
RPMI-8226 = test: NCI 60 cell line screen (Leukemia); format: cell-based, human; conditions: for GI50: Homo sapiens, RPMI-8226, NCI 5 dose assay; for Growth percentage: RPMI-8226, single dose 10 µM
HOP-92 = test: NCI 60 cell line screen (Non-Small Cell Lung Cancer); format: cell-based, human; conditions: for Growth percentage: HOP-92, single dose 10 µM; for GI50: Homo sapiens, HOP-92, NCI 5 dose assay
NCI-H332M = test: as above; format: cell-based, human; conditions: for GI50: Homo sapiens, NCI 5 dose assay; for Growth percentage: single dose 10 µM
NCI-H460 = test: as above; format: cell-based, human; conditions: for GI50: Homo sapiens, NCI-H460, NCI 5 dose assay; for Growth percentage: NCI-H460, single dose 10 µM
NCI-H552 = test: as above; format: cell-based, human; conditions: for GI50: Homo sapiens, 60 cell, NCI-H552, NCI 5 dose assay; for Growth percentage: NCI-H552, single dose 10 µM
HCT-15 = test: NCI 60 cell line screen (Colon Cancer); format: cell-based, human; conditions: for Growth percentage: HCT-15, single dose 10 µM; for GI50: Homo sapiens, HCT-15, NCI 5 dose assay
KM12 = test: NCI 60 cell line screen (Colon Cancer); format: cell-based, human; conditions: for GI50: Homo sapiens, KM12, NCI 5 dose assay; for Growth percentage: KM12, single dose 10 µM
SW-620 = test: NCI 60 cell line screen (Colon Cancer); format: cell-based, human; conditions: for GI50: Homo sapiens, SW-620, NCI 5 dose assay; for Growth percentage: SW-620, single dose 10 µM
SF295 = test: NCI 60 cell line screen (CNS Cancer); format: cell-based, human; conditions: for GI50: Homo sapiens, SF-295, SF295, NCI 5 dose assay; for Growth percentage: SF295, single dose 10 µM
SF539 = test: NCI 60 cell line screen (CNS Cancer); format: cell-based, human; conditions: for GI50: Homo sapiens, SF-539, SF539, NCI 5 dose assay; for Growth percentage: SF539, single dose 10 µM
U251 (AC in Table 3) = test: NCI 60 cell line screen (CNS Cancer); format: cell-based, human; conditions: for GI50: Homo sapiens, U-251, cell line printed AC, NCI 5 dose assay; for Growth percentage: U251, single dose 10 µM
MALME-3M = test: NCI 60 cell line screen (Melanoma); format: cell-based, human; conditions: single dose 10 µM
SK-MEL-5 = test: NCI 60 cell line screen (Melanoma); format: cell-based, human; conditions: for GI50: Homo sapiens, SK-MEL-5, NCI 5 dose assay; for Growth percentage: SK-MEL-5, single dose 10 µM
OVCAR-3 = test: NCI 60 cell line screen (Ovarian Cancer); format: cell-based, human; conditions: for GI50: Homo sapiens, OVCAR-3, NCI 5 dose assay; for Growth percentage: OVCAR-3, single dose 10 µM
OVCAR-5 = test: NCI 60 cell line screen (Ovarian Cancer); format: cell-based, human; conditions: for GI50: Homo sapiens, OVCAR-5, NCI 5 dose assay; for Growth percentage: OVCAR-5, single dose 10 µM
OVCAR-8 = test: NCI 60 cell line screen (Ovarian Cancer); format: cell-based, human; conditions: for GI50: Homo sapiens, OVCAR-8, NCI 5 dose assay; for Growth percentage: OVCAR-8, single dose 10 µM
NCI/ADR-RES = test: NCI 60 cell line screen (Ovarian Cancer); format: cell-based, human; conditions: for GI50: Homo sapiens, NCI 5 dose assay; for Growth percentage: single dose 10 µM
SK-OV-3 = test: NCI 60 cell line screen (Ovarian Cancer); format: cell-based, human; conditions: for GI50: Homo sapiens, SK-OV-3, NCI 5 dose assay; for Growth percentage: SK-OV-3, single dose 10 µM
786-0 = test: NCI 60 cell line screen (Renal Cancer); format: cell-based, human; conditions: for Growth percentage: 786-0, single dose 10 µM; for GI50: Homo sapiens, 786-0, NCI 5 dose assay
A498 = test: NCI 60 cell line screen (Renal Cancer); format: cell-based, human; conditions: for Growth percentage: A498, single dose 10 µM; for GI50: Homo sapiens, A498, NCI 5 dose assay
ACHN = test: NCI 60 cell line screen (Renal Cancer); format: cell-based, human; conditions: for GI50: Homo sapiens, NCI 5 dose assay; for Growth percentage: single dose 10 µM
CAKI-1 = test: NCI 60 cell line screen (Renal Cancer); format: cell-based, human; conditions: for Growth percentage: CAKI-1, single dose 10 µM; for GI50: Homo sapiens, CAKI-1, NCI 5 dose assay
RXF 393 = test: NCI 60 cell line screen (Renal Cancer); format: cell-based, human; conditions: for Growth percentage: RXF 393, single dose 10 µM
SN12C = test: NCI 60 cell line screen (Renal Cancer); format: cell-based, human; conditions: for GI50: Homo sapiens, NCI 5 dose assay; for Growth percentage: single dose 10 µM
TK-10 = test: NCI 60 cell line screen (Renal Cancer); format: cell-based, human; conditions: for Growth percentage: TK-10, single dose 10 µM
CYP19 (aromatase) = target: T1, CYP19 (aromatase) (Homo sapiens, UniProt P11511); test: cytochrome P450 assay (DBF fluorescence); conditions: for inhibition at 20 µg/mL: read-out: % Inhibition at 20 µg/mL CYP19
T1 sequence (P11511 1-503): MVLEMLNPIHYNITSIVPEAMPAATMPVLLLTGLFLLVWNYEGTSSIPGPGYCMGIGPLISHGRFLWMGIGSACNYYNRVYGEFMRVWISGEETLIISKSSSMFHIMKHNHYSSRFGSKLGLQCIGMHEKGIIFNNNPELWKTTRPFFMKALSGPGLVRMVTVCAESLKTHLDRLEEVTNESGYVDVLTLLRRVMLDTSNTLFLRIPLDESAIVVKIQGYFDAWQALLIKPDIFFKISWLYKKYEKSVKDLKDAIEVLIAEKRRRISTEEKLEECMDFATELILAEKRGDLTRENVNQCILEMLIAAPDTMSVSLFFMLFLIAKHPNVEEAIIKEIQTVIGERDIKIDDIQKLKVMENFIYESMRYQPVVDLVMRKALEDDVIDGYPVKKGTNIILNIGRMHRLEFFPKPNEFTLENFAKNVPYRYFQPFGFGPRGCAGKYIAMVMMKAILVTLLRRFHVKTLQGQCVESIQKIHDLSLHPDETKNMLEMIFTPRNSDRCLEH

[2] = 60 cell, NCI 5 dose assay, 60 cell lines, read-out: MG-MID (mean of GI50 values over all cell lines)

## COc1ccc(C(c2cc(OC)c(OC)c(OC)c2)n2ccnc2)cc1O (stereo not drawn) [21l, 5-((1H-Imidazol-1-yl)(3,4,5-Trimethoxyphenyl)Methyl)-2-Methoxyphenol]
[1]
  viability at 48 h, 0.4 µM: ~100%
  viability at 48 h, 0.5 µM: ~100%
  viability at 24 h, 1 µM: 73%
  viability at 48 h, 1 µM: 64%
  viability at 72 h, 1 µM: > 80%
  viability at 48 h, 10 µM: ~30%
NCI 60 cell line panel
  Mean Growth percentage: 23.38%
NCI 60 cell line panel; 60 cell lines
  MID TGI (total growth inhibition): 40700 nM
NCI 60 cell line panel; 60 cell, CNS cancer cell lines, read-out: GI50 range
  GI50: 192 to 731 nM
NCI 60 cell line panel; [2]
  GI50: 234 nM
NCI 60 cell line panel; 60 cell, breast cancer panel, read-out: GI50 range
  GI50: 306 to 664 nM
NCI 60 cell line panel; 60 cell, COMPARE analysis text, read-out: LC50 values (all)
  LC50 (50% lethal concentration): > 100000 nM
NCI 60 cell line panel; 60 cell lines, read-out: MID LC50
  LC50 (50% lethal concentration): > 100000 nM
CCRF-CEM
  GI50: 289 nM
  Growth percentage: 6.97%
HL-60 (TB)
  GI50: 229 nM
  Growth percentage: -35.94%
K-562
  GI50: 225 nM
  Growth percentage: 8.00%
MOLT-4
  GI50: 565 nM
  Growth percentage: 14.01%
RPMI-8226
  GI50: 385 nM
  Growth percentage: 18.86%
HOP-92
  Growth percentage: 25.77%
  GI50: 28600 nM
NCI-H332M
  GI50: 789 nM
  Growth percentage: 48.23%
NCI-H460
  GI50: 377 nM
  Growth percentage: 6.11%
NCI-H552
  GI50: 247 nM
  Growth percentage: 12.12%
HCT-15
  Growth percentage: 7.70%
  GI50: 264 nM
KM12
  GI50: 389 nM
  Growth percentage: 17.05%
SW-620
  GI50: 387 nM
  Growth percentage: 28.61%
SF295
  GI50: 307 nM
  Growth percentage: -3.02%
SF539
  GI50: 217 nM
  Growth percentage: 9.52%
U251 (AC in Table 3)
  GI50: 391 nM
  Growth percentage: 15.52%
MALME-3M
  Growth percentage: 66.57%
SK-MEL-5
  GI50: 367 nM
  Growth percentage: -12.88%
OVCAR-3
  GI50: 264 nM
  Growth percentage: -9.52%
OVCAR-5
  GI50: 648 nM
  Growth percentage: 71.11%
OVCAR-8
  GI50: 450 nM
  Growth percentage: 10.28%
NCI/ADR-RES
  GI50: 1920 nM
  Growth percentage: 12.06%
SK-OV-3
  GI50: 465 nM
  Growth percentage: 21.78%
786-0
  Growth percentage: 19.99%
  GI50: 369 nM
A498
  Growth percentage: 8.04%
  GI50: 304 nM
ACHN
  GI50: 693 nM
  Growth percentage: 42.41%
CAKI-1
  Growth percentage: 41.26%
  GI50: 681 nM
RXF 393
  Growth percentage: -5.38%
SN12C
  GI50: 910 nM
  Growth percentage: 37.55%
TK-10
  Growth percentage: 52.86%
CYP19 (aromatase)
  inhibition at 20 µg/mL: 74.7%

## COc1ccc(C(c2cc(OC)c(OC)c(OC)c2)n2cncn2)cc1O (stereo not drawn) [19e, 5-((1H-1,2,4-Triazol-1-yl)(3,4,5-Trimethoxyphenyl)methyl)-2-Methoxyphenol]
[1]
  viability at 48 h, 0.4 µM: ~100%
  viability at 48 h, 0.5 µM: ~100%
  viability at 24 h, 1 µM: 99%
  viability at 48 h, 1 µM: > 94%
  viability at 72 h, 1 µM: > 80%
  viability at 48 h, 10 µM: ~30%
NCI 60 cell line panel
  Mean Growth percentage: 26.24%
NCI 60 cell line panel; 60 cell lines
  MID TGI (total growth inhibition): 53700 nM
NCI 60 cell line panel; [2]
  GI50: 243 nM
CCRF-CEM
  GI50: 402 nM
  Growth percentage: 9.32%
HL-60 (TB)
  GI50: 261 nM
  Growth percentage: -32.53%
K-562
  GI50: 427 nM
  Growth percentage: 8.34%
MOLT-4
  GI50: 510 nM
  Growth percentage: 16.7%
RPMI-8226
  GI50: 452 nM
  Growth percentage: 20.71%
HOP-92
  Growth percentage: 43.92%
  GI50: 9690 nM
NCI-H332M
  GI50: 696 nM
  Growth percentage: 51.45%
NCI-H460
  GI50: 414 nM
  Growth percentage: 9.82%
NCI-H552
  GI50: 395 nM
  Growth percentage: 12.78%
HCT-15
  Growth percentage: 10.04%
  GI50: 438 nM
KM12
  GI50: 418 nM
  Growth percentage: 21.79%
SW-620
  GI50: 431 nM
  Growth percentage: 29.08%
SF295
  GI50: 325 nM
  Growth percentage: 2.56%
SF539
  GI50: 300 nM
  Growth percentage: 9.34%
U251 (AC in Table 3)
  GI50: 446 nM
  Growth percentage: 15.32%
MALME-3M
  Growth percentage: 70.24%
SK-MEL-5
  GI50: 440 nM
  Growth percentage: 14.60%
OVCAR-3
  GI50: 323 nM
  Growth percentage: 1.74%
OVCAR-5
  GI50: 1990 nM
  Growth percentage: 72.98%
OVCAR-8
  GI50: 1140 nM
  Growth percentage: 13.43%
NCI/ADR-RES
  GI50: 1180 nM
  Growth percentage: 1.80%
SK-OV-3
  GI50: 402 nM
  Growth percentage: 20.25%
786-0
  Growth percentage: 28.10%
  GI50: 475 nM
A498
  Growth percentage: 9.66%
  GI50: 324 nM
ACHN
  GI50: 653 nM
  Growth percentage: 52.36%
CAKI-1
  Growth percentage: 40.43%
  GI50: 567 nM
RXF 393; Homo sapiens, RXF 393, NCI 5 dose assay
  GI50: 321 nM
RXF 393
  Growth percentage: -13.85%
SN12C
  GI50: 853 nM
  Growth percentage: 39.32%
TK-10; Homo sapiens, TK-10, NCI 5 dose assay
  GI50: > 100000 nM
TK-10
  Growth percentage: 61.31%
CYP19 (aromatase); IC50 CYP19
  IC50: 29000 nM and 29600 nM
CYP19 (aromatase)
  inhibition at 20 µg/mL: 85.3%
CYP19 (aromatase); read-out: inhibition of CYP19
  inhibition at 20 µM: > 85%
